Test results from article PMC8148468, “Shikimic acid protects skin cells from UV-induced senescence through activation of the NAD+-dependent deacetylase SIRT1” (Aging (Albany NY), 2021).

What follows are compounds tested on primary human dermal fibroblasts (HDFs) (assay: not given). Conditions: HDFs, WST-1 cell viability test.
From the text: In our efforts to identify novel factors that could prevent skin cell senescence, we developed a screening process to identify new modulators of the protective role of sirtuins in UV-induced senescence. For this purpose, we established a culture of primary human dermal fibroblasts (HDFs). […] Our first step in the screening was to establish the optimal concentrations of these compounds in the case of HDFs. […] Once established, we took these parameters into account to decide the specific working range of concentrations for each compound.
Human dermal fibroblasts (HDFs) (Promocell, Germany) from 40-year old Caucasian women were used as the in vitro model for compound viability and efficacy screening. Cells were cultured in Dulbecco's modified eagle medium (DMEM) low glucose (Biowest, France) supplemented with 10% fetal bovine serum (FBS) (Capricorn Scientific, Germany) and 10 U/mL penicillin/streptomycin (Biowest, France) in a humidified incubator at 37° C and 5% CO2. For cell passage, cells at 80% confluence were trypsinized and plated at 60% confluence. Cells between passage 13 and 18 were used for the assays. For the SIRT1 in vitro assay, HEK293 cells (ATCC, USA), used to transfect and immunoprecipitate SIRT1 protein, were grown in DMEM high glucose (Thermo Fisher Scientific, USA), supplemented with 10% FBS in a humidified incubator at 37° C and 5% CO2. The following experiments were all performed in triplicate.
(§1) The protocol for senescence induction using UVB irradiation is described in the Supplementary Methods. SA-β-Gal staining, WST-1, sulforhodamine B (SRB) and trypan blue assays were performed as previously described. For the siRNA experiments, the protocol for senescence induction using UVB irradiation was the same as in the Supplementary Methods. Specific siRNA (Horizon discovery, UK) for SIRT1, SIRT2, SIRT6, BiP or scramble siRNA were incubated for 6 hours before each irradiation step.
With `C=C[C@](C)(O)CC[C@@H]1[C@@]2(C)CCCC(C)(C)[C@@H]2CC[C@@]1(C)O` [Sclareol] the “LD50” value was 0.04 mM.
`C[C@@H]1O[C@@H](O[C@@H]2[C@@H](O)[C@H](OCCc3ccc(O)c(O)c3)O[C@H](CO)[C@H]2OC(=O)/C=C/c2ccc(O)c(O)c2)[C@H](O)[C@H](O)[C@H]1O` [Verbascoside] was tested, and the “LD50” value was 0.122 mM.

Same assay, conditions: HDFs, WST-1 cell viability test, maximum non-cytotoxic dose
In the case of `C=C[C@](C)(O)CC[C@@H]1[C@@]2(C)CCCC(C)(C)[C@@H]2CC[C@@]1(C)O` [Sclareol], the “Max. non-cyt. doses” value is reported as 0.02 mM.
In the case of `C[C@@H]1O[C@@H](O[C@@H]2[C@@H](O)[C@H](OCCc3ccc(O)c(O)c3)O[C@H](CO)[C@H]2OC(=O)/C=C/c2ccc(O)c(O)c2)[C@H](O)[C@H](O)[C@H]1O` [Verbascoside], the “Max. non-cyt. doses” value is reported as 0.05 mM.

Same assay, conditions: female, human
With `NC(=O)NC1NC(=O)NC1=O` (stereo not shown) [Allantoin, reference compound] the “LD50” value was 100 mM and the “Max. non-cyt. doses” value was 50 mM.
With `CC(C)(CO)[C@@H](O)C(=O)NCCCO` [Dexpanthenol, reference compound] the “LD50” value was 262.48 mM and the “Max. non-cyt. doses” value was 100 mM.
With `O=C(O)c1cc(O)c(O)c(O)c1` [Gallic acid] the “LD50” value was 0.179 mM and the “Max. non-cyt. doses” value was 0.1 mM.
With `COC1=C(OC)C(=O)C(CCCCCCCCCCO)=C(C)C1=O` [Idebenone, reference compound] the “LD50” value was 0.021 mM and the “Max. non-cyt. doses” value was 0.01 mM.
For `O=C(CCc1ccc(O)cc1)c1c(O)cc(O)cc1O` [Phloretin], the “LD50” value was 0.166 mM and the “Max. non-cyt. doses” value was 0.05 mM.
For `NCCS(=O)(=O)O` [Taurine], the “LD50” value was 396.58 mM and the “Max. non-cyt. doses” value was 150 mM.

These compounds were tested on H4K16ac (the target of SIRT1 and SIRT2) (assay: Sirtuin activity assay in HDF: H4K16ac levels (Western blot)). Conditions: HDF treated 24h. As to SIRT1,2 H4K16ac: key: ↑: increase; ↓: decrease; hyphens that indicate no effect (-).
Assay type: cell-based, human
Description: (§2) Figure 1 (A) Schematic representation of the compound testing for sirtuin activity evaluation in HDF. Cells were treated with or without the compounds for 24h and harvested for analysis. […] (C) Western Blot analysis and (D) quantification of H4K16ac and H3K9ac levels in cells treated with Resveratrol or Shikimic acid at the indicated concentrations. H4K16 and H3K9 levels were normalized to H4 and H3 levels respectively. Student T-test, *p<0.05, **p<0.01, ***p<0.001.
(§3) HDFs were plated in 100x20 mm2 cell culture plates and after 24h, fresh cell culture medium containing the compounds was added. After 24h, cells were detached with cell scrapers, harvested, and processed for qPCR or western blot.
(§4) Protein levels were analyzed as previously described. Cells were directly lysed in 1x Laemmli Buffer (Bio-Rad, USA), incubated at 95° C and centrifuged. Supernatant was subjected to SDS-polyacrylamide gel electrophoresis, and successive steps were performed as described. The list of antibodies used is included in Supplementary Table 2.
`CC(C)(CO)[C@@H](O)C(=O)NCCCO` [Dexpanthenol, reference compound] was tested, and the “effect on H4K16ac levels” value was “induced a similar effect on both targets”.
In the case of `O=C(CCc1ccc(O)cc1)c1c(O)cc(O)cc1O` [Phloretin], the “effect on H4K16ac levels” value is reported as “had an effect solely on H4K16ac”.

Same assay, conditions: HDF treated 24h, Figure 1B
For `NC(=O)NC1NC(=O)NC1=O` (stereo not shown) [Allantoin, reference compound], the “SIRT1,2 H4K16ac” value was “-”.
In the case of `O=C(O)c1cc(O)c(O)c(O)c1` [Gallic acid], the “SIRT1,2 H4K16ac” value is reported as “-”.
For `NCCS(=O)(=O)O` [Taurine], the “SIRT1,2 H4K16ac” value was “-”.
In the case of `C[C@@H]1O[C@@H](O[C@@H]2[C@@H](O)[C@H](OCCc3ccc(O)c(O)c3)O[C@H](CO)[C@H]2OC(=O)/C=C/c2ccc(O)c(O)c2)[C@H](O)[C@H](O)[C@H]1O` [Verbascoside], the “SIRT1,2 H4K16ac” value is reported as “-”.

These compounds were tested on H3K9ac (the target of SIRT1, SIRT2 and SIRT6) (assay: Sirtuin activity assay in HDF: H3K9ac levels (Western blot)). Conditions: HDF treated 24h. As to SIRT1,2,6 H3K9ac: key: ↑: increase; ↓: decrease; hyphens that indicate no effect (-).
Assay type: cell-based, human
Description: as §2, §3, §4
With `CC(C)(CO)[C@@H](O)C(=O)NCCCO` [Dexpanthenol, reference compound] the “effect on H3K9ac levels” value was “induced a similar effect on both targets”.

Same assay, conditions: HDF treated 24h, Figure 1B
`O=C(O)c1cc(O)c(O)c(O)c1` [Gallic acid] was tested, and the “SIRT1,2,6 H3K9ac” value was “-”.
With `COC1=C(OC)C(=O)C(CCCCCCCCCCO)=C(C)C1=O` [Idebenone, reference compound] the “SIRT1,2,6 H3K9ac” value was “-”.
With `O=C(CCc1ccc(O)cc1)c1c(O)cc(O)cc1O` [Phloretin] the “SIRT1,2,6 H3K9ac” value was “-”.
In the case of `C=C[C@](C)(O)CC[C@@H]1[C@@]2(C)CCCC(C)(C)[C@@H]2CC[C@@]1(C)O` [Sclareol], the “SIRT1,2,6 H3K9ac” value is reported as “-”.
With `NCCS(=O)(=O)O` [Taurine] the “SIRT1,2,6 H3K9ac” value was “-”.
For `C[C@@H]1O[C@@H](O[C@@H]2[C@@H](O)[C@H](OCCc3ccc(O)c(O)c3)O[C@H](CO)[C@H]2OC(=O)/C=C/c2ccc(O)c(O)c2)[C@H](O)[C@H](O)[C@H]1O` [Verbascoside], the “SIRT1,2,6 H3K9ac” value was “-”.

These compounds were tested on UVB-irradiated human dermal fibroblasts (HDFs) (assay: UVB-induced senescence assay: SA-β-Gal staining). Conditions: HDF, 2 cycles of UVB, compound day 1 to 7, Figure 2B. As to β-Gal: key: ↑: increase; ↓: decrease; hyphens that indicate no effect (-).
Assay type: cell-based
Description: (§5) In the second approach, we established a method for inducing senescence in these cells with 2 cycles of UVB irradiation 72h apart (Figure 2A). The use of UVA to induce senescence was discarded due to its considerably longer time requirement, being unsuitable to screen 30 compounds within a reasonable period. Cells were treated with these compounds throughout the duration of the assay and cellular senescence was monitored with two markers: accumulation of SA-β-galactosidase (SA-β-Gal) activity, and the decrease in expression of HAS2 (hyaluronic acid synthase 2), a previously reported marker of skin senescence.
(§6) Figure 2 (A) Schematic representation of the protocol for senescence induction using UVB irradiation. Cells were treated -/+ the compounds from day 1 to 7 after seeding, irradiated with UVB on days 2 and 5 and harvested for analysis on day 7. […] (C) Phase-contrast (left column) and bright field (right column) microscope images of SA-β-Gal staining showing non-irradiated cells, UVB-irradiated cells non-treated and treated with Gallic acid or Shikimic acid at the indicated concentrations. (D) Percentage of SA-β-Gal positive cells and (E) Relative HAS2 mRNA levels in non-irradiated cells, UVB-irradiated cells and UVB-irradiated cells treated with Gallic acid or Shikimic acid at the indicated concentrations. Student T-test, *p<0.05, **p<0.01, ***p<0.001.
as §1
(§7) Senescence induction by UVB irradiation For the non-irradiation control conditions, HDF were […]
(§8) After 24h, culture medium was removed and well plates. After 24h, culture medium was removed replaced by fresh cell culture medium containing the and replaced with fresh cell culture medium containing compounds at different concentrations. After 24h, the compounds at different concentrations. […]
(§9) cell culture medium was removed, and cells were cells/plate in fresh cell culture medium containing the irradiated at 25 mJ/cm2 of UVB light (312 nm) in a Bio- compound in 6-well plates. After 3 days, cells were […]
(§10) amount of PBS. PBS was then removed and fresh cell fresh cell culture medium containing the compound in culture medium with the compound was added to each 6-well plates. After 2 days, cells were processed well. After 3 days, cells were irradiated again under the according to the qPCR, β-Gal staining, apoptosis, cell same conditions. After 2 days, cells were processed cycle or immunofluorescence protocols. according to the qPCR, β-Gal staining, apoptosis, cell cycle or immunofluorescence protocols.
With `NC(=O)NC1NC(=O)NC1=O` (stereo not shown) [Allantoin, reference compound] the β-Gal was “-”.
`CC(C)(CO)[C@@H](O)C(=O)NCCCO` [Dexpanthenol, reference compound] was tested, and the β-Gal was “-”.
In the case of `O=C(O)c1cc(O)c(O)c(O)c1` [Gallic acid], the β-Gal is reported as “-”.
In the case of `COC1=C(OC)C(=O)C(CCCCCCCCCCO)=C(C)C1=O` [Idebenone, reference compound], the β-Gal is reported as “-”.
With `O=C(CCc1ccc(O)cc1)c1c(O)cc(O)cc1O` [Phloretin] the β-Gal was “-”.
With `C=C[C@](C)(O)CC[C@@H]1[C@@]2(C)CCCC(C)(C)[C@@H]2CC[C@@]1(C)O` [Sclareol] the β-Gal was “-”.
For `NCCS(=O)(=O)O` [Taurine], the β-Gal was “-”.
For `C[C@@H]1O[C@@H](O[C@@H]2[C@@H](O)[C@H](OCCc3ccc(O)c(O)c3)O[C@H](CO)[C@H]2OC(=O)/C=C/c2ccc(O)c(O)c2)[C@H](O)[C@H](O)[C@H]1O` [Verbascoside], the β-Gal was “-”.

Same assay, conditions: UVB-irradiated HDF
In the case of `NCCS(=O)(=O)O` [Taurine], the “SA-β-Gal accumulation/staining” value is reported as “did not change the level of SA-β-Gal staining”.
For `C[C@@H]1O[C@@H](O[C@@H]2[C@@H](O)[C@H](OCCc3ccc(O)c(O)c3)O[C@H](CO)[C@H]2OC(=O)/C=C/c2ccc(O)c(O)c2)[C@H](O)[C@H](O)[C@H]1O` [Verbascoside], the “SA-β-Gal accumulation/staining” value was “did not change the level of SA-β-Gal staining”.

Same assay, conditions: UVB-irradiated HDF, SA 10, 25, 50 mM plus EX-527 1 μM, AGK2 2 μM or OSS128167 200 μM
With `N#C/C(=C\c1ccc(-c2cc(Cl)ccc2Cl)o1)C(=O)Nc1cccc2ncccc12` [AGK2, reference compound] the “effect of sirtuin inhibitor on the protective effect of SA on senescence (SA-β-Gal and HAS2 expression)” value was “produced no clear effect”.
In the case of `O=C(Nc1ccc(O)c(C(=O)O)c1)c1cccc(NC(=O)c2ccco2)c1` [OSS128167, reference compound], the “effect of sirtuin inhibitor on the protective effect of SA on senescence (SA-β-Gal and HAS2 expression)” value is reported as “produced no clear effect”.

Same assay, conditions: UVB-irradiated HDF, SA-β-Gal and HAS2 markers
`CC(C)(CO)[C@@H](O)C(=O)NCCCO` [Dexpanthenol, reference compound] was tested, and the “prevention of UV-induced cellular senescence” value was “did not prevent cellular senescence”.

What follows are compounds tested on HAS2 (hyaluronic acid synthase 2) (assay: UVB-induced senescence assay: HAS2 gene expression (qPCR)). Conditions: HDF, 2 cycles of UVB, compound day 1 to 7, Figure 2B. Also: key: ↑: increase; ↓: decrease; hyphens that indicate no effect (-).
Assay type: cell-based, human
Description: as §5, §6
RNA was extracted from cell pellets using the Total RNA Purification Kit (Norgen, Canada), according to the manufacturer’s protocol. Extracted RNA was quantified using a NanoDrop® ND-1000 UV-Vis Spectrophotometer (Thermo Fisher Scientific, USA) and 300 ng of RNA were retrotranscribed to cDNA using the PrimeScriptTM RT reagent kit (Takara Bio Inc., Japan). cDNA was diluted 1/10 in ultrapure water and qPCR mix was prepared by adding cDNA (12 ng), SYBR green supermix (Bio Rad, USA), forward and reverse primers (0.2μM). The primers and their respective sequences are listed in Supplementary Table 1. qPCR protocol included one step at 95° C for 30 s, 40 cycles at 95° C for 10s, and 60° C for 1min. The results were analyzed with Bio-Rad CFX Manager software. BACT was used as a housekeeping gene to normalize gene expression.
as §7, §8, §9, §10
With `NC(=O)NC1NC(=O)NC1=O` (stereo not shown) [Allantoin, reference compound] the HAS2 expression was “-”.
For `CC(C)(CO)[C@@H](O)C(=O)NCCCO` [Dexpanthenol, reference compound], the HAS2 expression was “-”.
For `COC1=C(OC)C(=O)C(CCCCCCCCCCO)=C(C)C1=O` [Idebenone, reference compound], the HAS2 expression was “-”.
With `C=C[C@](C)(O)CC[C@@H]1[C@@]2(C)CCCC(C)(C)[C@@H]2CC[C@@]1(C)O` [Sclareol] the HAS2 expression was “-”.
